Like-named read-outs stand apart in the source and are kept apart here.
Assays:
Gli-luciferase activity = assay: Reporter gene assay (RGA) in TMHh12 cells, antagonism of Gli-luciferase activity in the presence of a Smo agonist; type: cell-based
Description: Activity of the compounds was evaluated using a reporter gene assay (RGA) in TMHh12 cells.

[1] = biological target: mouse Smoothened receptor (Mus musculus, UniProt P56726); assay: Smo binding assay, displacement of radio-labeled smoothened agonist, filter binding format (mouse); conditions: displacement of small molecule agonist of Smoothened, read-out: Mouse Smo bdg., IC50
Text: A Smo binding assay was developed using radio-labeled smoothened agonist for compound competition.

[2] = biological target: human Smoothened receptor (Homo sapiens, UniProt Q99835); assay: Smo binding assay, displacement of radio-labeled smoothened agonist, filter binding format (human); conditions: displacement of small molecule agonist of Smoothened, read-out: Human Smo bdg., IC50
Text: A Smo binding assay was developed using radio-labeled smoothened agonist for compound competition. Table 9 lists the IC50 for displacement of a small molecule agonist of Smoothened determined in a filter binding format for the mouse and human Smoothened receptor.

[3] = 25 nM small molecule Smo agonist, read-out: RGA (25 nM Smo agonist) IC50
[4] = read-out: RGA (1 nM Smo agonist) IC50, 1 nM small molecule Smo agonist

Sequence of human Smoothened receptor (Q99835 28-787): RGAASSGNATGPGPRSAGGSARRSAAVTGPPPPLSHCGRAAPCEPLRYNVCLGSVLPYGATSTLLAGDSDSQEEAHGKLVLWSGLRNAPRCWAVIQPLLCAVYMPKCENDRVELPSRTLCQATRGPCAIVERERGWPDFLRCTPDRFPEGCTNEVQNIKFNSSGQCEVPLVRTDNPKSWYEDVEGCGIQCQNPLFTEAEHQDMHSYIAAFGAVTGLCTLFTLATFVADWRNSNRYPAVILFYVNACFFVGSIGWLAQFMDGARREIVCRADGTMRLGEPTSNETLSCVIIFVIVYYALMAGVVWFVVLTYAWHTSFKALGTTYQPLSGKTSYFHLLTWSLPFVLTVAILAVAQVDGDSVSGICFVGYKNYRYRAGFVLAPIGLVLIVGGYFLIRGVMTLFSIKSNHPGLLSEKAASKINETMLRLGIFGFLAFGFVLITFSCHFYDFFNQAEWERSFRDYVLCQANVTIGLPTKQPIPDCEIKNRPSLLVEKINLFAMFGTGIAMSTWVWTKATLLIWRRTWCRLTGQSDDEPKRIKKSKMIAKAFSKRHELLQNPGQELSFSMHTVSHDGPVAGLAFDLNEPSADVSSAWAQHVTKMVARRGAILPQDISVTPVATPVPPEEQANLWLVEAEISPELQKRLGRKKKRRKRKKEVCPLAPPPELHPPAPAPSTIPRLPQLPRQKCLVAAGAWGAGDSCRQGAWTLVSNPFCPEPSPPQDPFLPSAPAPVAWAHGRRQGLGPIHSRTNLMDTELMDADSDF
Sequence of mouse Smoothened receptor (P56726 33-793): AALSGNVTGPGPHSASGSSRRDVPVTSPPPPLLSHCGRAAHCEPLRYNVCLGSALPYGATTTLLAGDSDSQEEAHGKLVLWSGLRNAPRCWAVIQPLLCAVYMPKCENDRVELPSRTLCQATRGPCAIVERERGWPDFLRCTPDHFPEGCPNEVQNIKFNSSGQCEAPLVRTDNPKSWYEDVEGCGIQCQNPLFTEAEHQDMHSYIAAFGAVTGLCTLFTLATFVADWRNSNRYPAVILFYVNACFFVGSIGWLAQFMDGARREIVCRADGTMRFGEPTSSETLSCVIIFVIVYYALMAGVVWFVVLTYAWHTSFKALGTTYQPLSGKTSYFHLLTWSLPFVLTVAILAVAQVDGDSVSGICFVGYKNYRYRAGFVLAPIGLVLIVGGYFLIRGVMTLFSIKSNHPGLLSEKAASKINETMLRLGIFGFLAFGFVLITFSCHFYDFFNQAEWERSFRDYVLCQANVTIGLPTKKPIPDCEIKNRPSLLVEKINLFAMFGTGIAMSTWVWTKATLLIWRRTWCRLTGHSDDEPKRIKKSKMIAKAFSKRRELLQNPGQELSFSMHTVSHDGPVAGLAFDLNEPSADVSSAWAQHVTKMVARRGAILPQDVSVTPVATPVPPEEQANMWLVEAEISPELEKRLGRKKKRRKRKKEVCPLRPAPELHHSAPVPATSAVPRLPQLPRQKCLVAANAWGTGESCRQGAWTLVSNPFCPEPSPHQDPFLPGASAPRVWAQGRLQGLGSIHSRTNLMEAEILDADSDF

Row | SMILES | IC50 (Gli-luciferase activity; [3]) [nM] | IC50 (Gli-luciferase activity; [4]) [nM] | IC50 [1] [nM] | IC50 [2] [nM]
1 | CC(C)(O)c1cnc(N2CCN(c3nnc(Cc4ccccc4)c4ccccc34)CC2)cc1C(F)(F)F [Example 148] | < 100 | < 100 | < 100 | < 100
2 | O=C(c1ccc(N2CCN(c3nnc(Cc4ccccc4)c4ccccc34)CC2)nc1)N1CCOCC1 [Example 54k] | 100 to 1000 | < 100 | < 100 | 100 to 1000
3 | CC(=O)c1cnc(N2CCN(c3nnc(Cc4ccccc4)c4ccccc34)C[C@H]2C)cn1 [Example 157] | < 100 | < 100 | < 100 | < 100
4 | N#Cc1ccc(N2CCN(c3nnc(Cc4ccc(C(=O)O)cc4)c4ccccc34)CC2)nc1 [Example 180] | 10000 to 40000 | 1000 to 10000 | 10000 to 40000 | 10000 to 40000
5 | N#Cc1ccc(N2CCN(c3nnc(Cc4ccc5ccccc5c4)c4ccccc34)CC2)nc1 [Example 62] | 1000 to 10000 | < 100 | < 100 | < 100
6 | CC(C)OC(=O)NCc1ccc(N2CCN(c3nnc(Cc4ccccc4)c4ccccc34)CC2)nc1 [Example 211] | 100 to 1000 | < 100 | < 100 | < 100
7 | FC(F)(F)c1ccc(N2CCC(c3cn(Cc4ccc(Br)cc4)c4ccccc34)CC2)nc1 [Example 99] | 1000 to 10000 | 100 to 1000 | 100 to 1000 | 100 to 1000
8 | C[C@@H]1CN(c2nnc(Cc3ccccc3)c3ccccc23)CCN1c1ccc(C(C)(C)O)cn1 [Example 154] | < 100 | < 100 | < 100 | < 100
9 | FC(F)(F)c1ccc(N2CCCN(c3nnc(Cc4ccccc4)c4ccccc34)CC2)nc1 [Example 3] | 100 to 1000 | 100 to 1000 | < 100 | –
10 | Cc1c(Cc2ccc(F)cc2)nnc(N2CCN(c3ccc(C#N)cn3)CC2)c1C [Example 93a] | 100 to 1000 | 100 to 1000 | < 100 | –
11 | c1ccc(Cc2nnc(N3CCC(c4ccccc4)CC3)c3ccccc23)cc1 [Example 12] | 1000 to 10000 | 1000 to 10000 | 10000 to 40000 | –
12 | Cc1ccc(N2CCN(c3nnc(Cc4ccccc4)c4ccccc34)CC2C)cc1 (centres unmarked) [Example 27] | 1000 to 10000 | 100 to 1000 | 1000 to 10000 | –
13 | O=C(NCCO)c1ccc(N2CCN(c3nnc(Cc4ccccc4)c4ccccc34)CC2)nc1 [Example 54e] | 100 to 1000 | < 100 | 100 to 1000 | –
14 | CN(C)C(=O)c1ccc(N2CCN(c3nnc(Cc4ccc(F)cc4F)c4ccccc34)CC2)nc1 [Example 202] | 100 to 1000 | < 100 | < 100 | –
15 | COCCN(C)C(=O)c1ccc(N2CCN(c3nnc(Cc4ccccc4)c4ccccc34)CC2)nc1 [Example 54g] | 100 to 1000 | < 100 | 100 to 1000 | –
16 | O=C(c1ccc(N2CCN(c3nnc(Cc4ccccc4)c4ccccc34)CC2)nc1)N1CCSC1 [Example 54p] | 100 to 1000 | < 100 | < 100 | –
17 | CN(CCO)C(=O)c1ccc(N2CCN(c3nnc(Cc4ccccc4)c4ccccc34)CC2)nc1 [Example 54c, 6-[4-(4-Benzyl-phthalazin-1-yl)-piperazin-1-yl]-N-(2-hydroxy-ethyl)-N-methyl-nicotinamide] | 100 to 1000 | < 100 | 100 to 1000 | –
18 | Cc1ccc(N2CCN(c3nnc(Cc4ccncc4)c4ccccc34)CC2C)cc1 (centres unmarked) [Example 28] | 1000 to 10000 | 1000 to 10000 | 1000 to 10000 | –
19 | CC(C)(C)c1ccc(N2CCN(c3nnc(Cc4cc(Cl)cc(Cl)c4)c4ccccc34)CC2)nc1 [Example 9] | 100 to 1000 | < 100 | < 100 | –
20 | CCCc1cnc(N2CCCN(c3nnc(Cc4ccccc4)c4ccccc34)CC2)nc1 [Example 44] | 100 to 1000 | < 100 | < 100 | –
21 | O=C(NCC1CCCCC1)c1ccc(N2CCN(c3nnc(Cc4ccccc4)c4ccccc34)CC2)nc1 [Example 54m] | 100 to 1000 | < 100 | < 100 | –
22 | O=C(c1ccc(N2CCN(c3nnc(Cc4ccccc4)c4ccccc34)CC2)nc1)N1CCC(O)C1 (centres unmarked) [Example 54o] | 100 to 1000 | < 100 | 100 to 1000 | –
23 | COC(=O)c1cnc(N2CCN(c3nnc(Cc4ccccc4)c4ccccc34)C[C@H]2C)cn1 [Example 145, (R)-4-(4-Benzyl-phthalazin-1-yl)-2-methyl-3,4,5,6-tetrahydro-2H-[1,2′]bipyrazinyl-5′-carboxylic acid methyl ester] | 100 to 1000 | < 100 | – | < 100
24 | FC(F)(F)c1cnc(N2CCCN(c3nnc(Cc4ccccc4)c4ccccc34)CC2)c(Cl)c1 [Example 17] | 1000 to 10000 | < 100 | 100 to 1000 | –
25 | CCc1cnc(N2CCCN(c3nnc(Cc4ccccc4)c4ccccc34)CC2)nc1 [Example 45] | 100 to 1000 | < 100 | < 100 | –
26 | Cc1cc(Cc2nnc(N3CCN(c4ccc5ccccc5c4)CC3)c3ccccc23)ccn1 [Example 33] | 1000 to 10000 | 1000 to 10000 | 100 to 1000 | –
27 | Cc1ccc(N2CCN(c3nnc(Cc4ccnc(C)c4)c4ccccc34)CC2C)cc1 (centres unmarked) [Example 29] | 10000 to 40000 | 1000 to 10000 | 10000 to 40000 | –

Other lines, results leading:

Row | IC50 (Gli-luciferase activity; [3]) [nM] | IC50 (Gli-luciferase activity; [4]) [nM] | IC50 [1] [nM] | IC50 [2] [nM] | SMILES
28 | 100 to 1000 | < 100 | 100 to 1000 | 100 to 1000 | COCC(=O)NCc1ccc(N2CCN(c3nnc(Cc4ccccc4)c4ccccc34)CC2)cc1 [Example 78b]
29 | 1000 to 10000 | 100 to 1000 | 100 to 1000 | – | NCc1ccc(N2CCN(c3nnc(Cc4ccccc4)c4ccccc34)CC2)cc1 [Example 73]
30 | 100 to 1000 | < 100 | < 100 | – | CCCc1cnc(N2CCN(c3nnc(Cc4ccccc4)c4ccccc34)CC2)nc1 [Example 42]
31 | 100 to 1000 | 100 to 1000 | 100 to 1000 | – | CC(=O)Nc1ccc(N2CCN(c3nnc(Cc4ccccc4)c4ccccc34)CC2)nc1 [Example 236]
32 | 1000 to 10000 | 1000 to 10000 | 1000 to 10000 | – | c1ccc(C2CCN(c3nnc(Cc4ccncc4)c4ccccc34)CC2)cc1 [Example 13]
33 | 10000 to 40000 | 1000 to 10000 | 10000 to 40000 | – | CC(=O)NCc1ccc(N2CCN(c3nnc(Cc4ccncc4)c4ccccc34)CC2)cc1 [Example 76]
34 | 1000 to 10000 | < 100 | 100 to 1000 | – | c1ccc(Cc2nnc(N3CCN(c4ncccn4)CC3)c3ccccc23)cc1 [Example 25]
35 | 1000 to 10000 | 100 to 1000 | 100 to 1000 | – | c1ccc(Cc2nnc(N3CCN(c4cnccn4)CC3)c3ccccc23)cc1 [Example 21]
36 | 10000 to 40000 | 1000 to 10000 | 10000 to 40000 | – | c1ccc(N2CCN(c3nnc(Cc4ccncc4)c4ccccc34)CC2)nc1 [Example 23]
37 | 1000 to 10000 | 100 to 1000 | 100 to 1000 | – | c1ccc(Cc2nnc(N3CCN(c4ccccn4)CC3)c3ccccc23)cc1 [Example 24]
38 | 100 to 1000 | < 100 | 100 to 1000 | – | c1ccc(Cc2nnc(N3CCCN(c4ncccn4)CC3)c3ccccc23)cc1 [Example 40]
39 | 100 to 1000 | 100 to 1000 | < 100 | – | CS(=O)(=O)NCc1ccc(N2CCN(c3nnc(Cc4ccccc4)c4ccccc34)CC2)nc1 [Example 205]
40 | 1000 to 10000 | 100 to 1000 | 100 to 1000 | – | CC(=O)NCc1ccc(N2CCN(c3nnc(Cc4ccccc4)c4ccccc34)CC2)cc1 [Example 75]
41 | 1000 to 10000 | 100 to 1000 | 100 to 1000 | – | OCc1ccc(N2CCN(c3nnc(Cc4ccccc4)c4ccccc34)CC2)nc1 [Example 158]
42 | – | 1000 to 10000 | 1000 to 10000 | – | c1ccc2c(N3CCN(c4cnccn4)CC3)nnc(Cc3ccncc3)c2c1 [Example 20]
43 | 1000 to 10000 | 100 to 1000 | 1000 to 10000 | – | c1ccc2c(N3CCN(c4nnc(Cc5ccncc5)c5ccccc45)CC3)cccc2c1 [Example 36]
44 | 100 to 1000 | < 100 | < 100 | – | CC(=O)c1cnc(N2CCN(c3nnc(Cc4ccccc4)c4ccccc34)CC2)cn1 [Example 153]
45 | 1000 to 10000 | 1000 to 10000 | 10000 to 40000 | – | Cc1ccccc1N1CCN(c2nnc(Cc3ccccc3)c3ccccc23)CC1 [Example 38]
46 | 1000 to 10000 | 100 to 1000 | 1000 to 10000 | – | c1ccc(Cc2nnc(N3CCN(c4cccc5ccccc45)CC3)c3ccccc23)cc1 [Example 34]
47 | 1000 to 10000 | 100 to 1000 | 1000 to 10000 | – | Clc1ccc(N2CCN(c3nnc(Cc4ccccc4)c4ccccc34)CC2)cc1Cl [Example 30]
48 | 1000 to 10000 | 100 to 1000 | 1000 to 10000 | – | c1ccc(Cc2nnc(N3CCN(c4ccncc4)CC3)c3ccccc23)cc1 [Example 37]
49 | 100 to 1000 | 100 to 1000 | 100 to 1000 | – | CC(=O)Nc1cnc(N2CCN(c3nnc(Cc4ccccc4)c4ccccc34)CC2)nc1 [Example 237, N-{2-[4-(4-Benzyl-phthalazin-1-yl)-piperazin-1-yl]-pyrimidin-5-yl}-acetamide]
50 | 100 to 1000 | < 100 | < 100 | – | CCCNC(=O)c1ccc(N2CCN(c3nnc(Cc4ccccc4)c4ccccc34)CC2)nc1 [Example 54n]
51 | 100 to 1000 | < 100 | < 100 | – | N#Cc1ccc(N2CCCN(c3nnc(Cc4ccccc4)c4ccccc34)CC2)nc1 [Example 19]
52 | 1000 to 10000 | 100 to 1000 | 100 to 1000 | – | c1ccc2cc(N3CCN(c4nnc(Cc5ccncc5)c5ccccc45)CC3)ccc2c1 [Example 32]

— US8536168B2 (Novartis AG, priority 2007, dated 2013)
